# Assay results taken from publication PMC6677171, “Subunit interactions and arrangements in the fission yeast Mis16–Mis18–Mis19 complex” (Life Science Alliance, 2019).
# Entries after “also recorded” stand apart in the source; their conditions may differ. Where no end group is shown, it is not given here.
# Key:
# [1] = tested on: Mis16–Mis18–Mis19 complex; assay: Competition assay by pull-down: disruption of Mis16–Mis18–Mis19 complex; assay type: binding, S. pombe; details: preformed Mis16–Mis19–Strep–Mis18 complex challenged with peptide, SDS–PAGE
# Description: It has previously been reported that the interaction between Mis18 and Mis 19 occurs via the N-terminal region of Mis19 binding to the C terminus (coiled-coil) of Mis18 ([Hayashi et al, 2014]). We tried to analyse this interaction in more detail. Given that residues 56–112 of Mis19 are involved interactions with Mis16, we constructed two truncations of Mis19 with half of the remaining N-terminal residues deleted in each case (Mis19^27-C and Mis19^44-C). We first asked if these Mis16–Mis19 constructs could still interact with Mis18 in an affinity pull-down experiment (Figs 6A and S6A). […] We then add Mis18 to the Mis16–Mis19 constructs. […] To further analyse these interactions, we carried out competition assays, challenging preformed Mis16–Mis18–Mis19 complex with peptides from the N terminus of Mis19, analysing the results both by size-exclusion chromatography and affinity pull-down assays. […]
# Figure 6. […] (A) Mis16–Mis18–Mis19 interactions assessed by pull-down. […] Binding of Mis16–Mis19 and Mis19 truncations to Mis18 are assessed by pull-down of Mis19 (right). (B) Mis16–19–18 binding assessed by size-exclusion and competition assays. […]
# All in vitro pull-down assays were performed using purified proteins or protein complexes. […] Input and pull-down elution samples were analysed by SDS–PAGE.
# [2] = tested on: Mis16–Mis18–Mis19 complex; assay: Competition assay by size-exclusion chromatography: disruption of Mis16–Mis18–Mis19 complex; assay type: binding, S. pombe; details: preformed complex challenged with peptides from Mis19 N terminus
# Description: It has previously been reported that the interaction between Mis18 and Mis 19 occurs via the N-terminal region of Mis19 binding to the C terminus (coiled-coil) of Mis18 ([Hayashi et al, 2014]). We tried to analyse this interaction in more detail. Given that residues 56–112 of Mis19 are involved interactions with Mis16, we constructed two truncations of Mis19 with half of the remaining N-terminal residues deleted in each case (Mis19^27-C and Mis19^44-C). We first asked if these Mis16–Mis19 constructs could still interact with Mis18 in an affinity pull-down experiment (Figs 6A and S6A). […] We then add Mis18 to the Mis16–Mis19 constructs. […] To further analyse these interactions, we carried out competition assays, challenging preformed Mis16–Mis18–Mis19 complex with peptides from the N terminus of Mis19, analysing the results both by size-exclusion chromatography and affinity pull-down assays. […] To try and pinpoint the residues that might be responsible for the interaction with Mis18, we carried out a sequence alignment of the Mis19 N terminus and noticed two conserved stretches of residues characterised by an IxxxF pattern (motif 1) and LxxF (motif 2) (Fig 7A). The two motifs are coincident with the two truncations we identified: between residues 1–27 and 28–44, respectively. As the N terminus of Mis19 is likely to be solvent-exposed (from our crystal structure), we reasoned that the conserved hydrophobic residues probably participate in protein–protein interactions. To test this, we carried out another set of competition experiments using the intact Mis16–18–19 complex and peptides carrying mutations in motifs 1 and 2, separately or combined (Fig 7B).
# Figure 6. The Mis19 N terminus binds Mis18. (A) Mis16–Mis18–Mis19 interactions assessed by pull-down. Input proteins are shown on the left. Binding of Mis16–Mis19 and Mis19 truncations to Mis18 are assessed by pull-down of Mis19 (right). (B) Mis16–19–18 binding assessed by size-exclusion and competition assays. Preformed Mis16–18–19 complex was challenged with peptides derived from the N terminus of Mis19 (indicated). […]
# Mis16 [3] = target: T1, Mis16 (Schizosaccharomyces pombe, UniProt O94244); assay: Co-expression and affinity pull-down/size-exclusion co-purification of Mis19 deletions with Mis16; assay type: binding, S. pombe; details: co-expressed in insect cells, Strep-Tactin tag on Mis16, gel filtration, SDS–PAGE band
# T1 construct: double-Strep-Tactin tag (TEV protease-cleavable) (N, cleaved yes); made in house; host or cells: insect cells (baculovirus made in Sf21, expression in Hi5)
# Description: Figure 2. Mis16–Mis19 contact regions. (A) Crystal structure of Mis16–Mis19 highlighting the Mis19-binding sites. Three putative binding sites A, B, and C (lighter to darker orange from N terminus to C terminus) are indicated. (B) Schematic of the various deletion constructs of Mis19 are used for binding studies showing the positions of sites A, B, and C. (C) Constructs containing affinity-tagged Mis16 and the Mis19 deletions shown above were co-expressed and purified by affinity pull-down and size-exclusion chromatography. SDS–PAGE gel of peak fractions is shown. Asterisks indicate impurities. (D) Close-up of the A- and C-binding sites. The locations of the kis1-1 (R65) and eic1-1 (F102) t.s. mutant residues are shown.
# The C-terminal interaction of Mis19 with Mis16 (site C in our nomenclature) has been previously described ([An et al, 2018]). […] To test the contribution of the individual sites to the Mis16–Mis19 interaction, various truncated Mis19 constructs were designed, for which site A, […], or both A and C are missing (Fig 2B). Full-length Mis16 and Mis19C (includes sites A, B, and C, residues 52–112), construct 1 (includes site B and C, residues 66–112), construct 2 (includes binding site B, residues 66–99), and construct 3 (includes site A and B, residues 52–99) were co-expressed in insect cells, as the isolated Mis19 truncations cannot be expressed and purified. The complexes were purified using a Strep-Tactin affinity tag on Mis16 and subsequent gel filtration step. All complexes elute from gel filtration as a single species. […] This site is formed by part of the unstructured region of Mis19 running across the top edge of Mis16.
# All proteins were expressed in insect cells using standard procedures. Genes were codon-optimised in all cases (GeneArt). Single protein constructs were cloned in pFastBac vectors (Invitrogen), whereas multi-protein complexes were cloned using the MultiBac system ([Fitzgerald et al, 2006]). The Mis16 protein carried a TEV protease-cleavable double-Strep-Tactin tag at the N terminus for purification purposes. All clones were sequence verified. […]
# Mis16 [4] = target: T1, Mis16; assay: ITC binding of peptides to Mis16; set-up: species or system S. pombe; details: for binding to Mis16 (in words): 30°C, mutants of the Mis19 C-terminal peptide (residues 97–112)
# Description: (§1) ITC experiments were performed at 30°C using an iTC200 (MicroCal). Samples were concentrated in a 50 mM Tris, pH 7.5, 100 mM NaCl, 4% glycerol, and […] buffer. Protein concentrations were determined using a spectrophotometer. The concentration of protein complex in the ITC cell was 26 μM. The lyophilised peptides of histone H4^27–50 or Mis19^97–112 were dissolved in the ITC buffer to a concentration of 260 μM. 3-μl injections were performed at 1,000 rpm stirring speed with an injection spacing of 3 min. The thermodynamic data were processed with the ORIGIN program (MicroCal).
# Mis16 [5] = target: T1, Mis16; assay: ITC competition between H4α1 and Mis19 site C peptides for Mis16; assay type: binding, S. pombe; details: Mis16 preincubated with one peptide before titration of the second, 30°C, pH 7.5
# Description: Figure 3.
# as §1
# [6] = ITC, 50 mM Tris, pH 7.5, 100 mM NaCl, 4% glycerol
# T1 sequence (O94244 whole entry): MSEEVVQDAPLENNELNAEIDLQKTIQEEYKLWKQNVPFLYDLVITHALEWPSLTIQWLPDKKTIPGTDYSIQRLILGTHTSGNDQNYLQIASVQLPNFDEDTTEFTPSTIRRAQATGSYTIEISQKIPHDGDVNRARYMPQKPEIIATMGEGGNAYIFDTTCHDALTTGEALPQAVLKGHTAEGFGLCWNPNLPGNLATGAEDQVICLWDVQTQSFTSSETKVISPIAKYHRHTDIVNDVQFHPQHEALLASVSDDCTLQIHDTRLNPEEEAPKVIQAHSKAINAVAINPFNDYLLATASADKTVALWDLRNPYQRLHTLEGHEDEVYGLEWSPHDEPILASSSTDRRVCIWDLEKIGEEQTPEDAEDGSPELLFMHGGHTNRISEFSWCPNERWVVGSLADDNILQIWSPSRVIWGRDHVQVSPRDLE
substance,measurement,setting,value
Mis19^1–27: peptide from the N terminus of Mis19 (MDLMPLEKARAIEIAFDNVFHNTKIPD),disruption of preformed Mis16–Mis18–Mis19 complex (pull-down),[1],no effect on complex formation
same,disruption of preformed Mis16–Mis18–Mis19 complex (size-exclusion),[2],no effect on complex formation
"construct 2: Mis19 deletion, includes binding site B, residues 66–99 (EFGVKDNHNHPINLHSLRSKSLIRAQGKKLDLHN; UniProt O42995 66-99, looked up, fragment)",association with Mis16,Mis16 [3],only Mis16 could be detected
"Mis19 V101S F102S R105A: triple mutant of the Mis19 C-terminal peptide (residues 97–112) (LHNRSSLRANVRAVKM; UniProt O42995 97-112, looked up, variant V101S F102S R105A)",binding to Mis16 (in words),Mis16 [4]; [6],completely abolished the interaction
same,KD,"Mis16 [4]; ITC, iTC200, 30°C, 50 mM Tris, pH 7.5, 100 mM NaCl, 4% glycerol, 0.5 TCEP, 26 μM in cell, peptide 260 μM, 3-μl injections, 1,000 rpm, spacing 3 min",no binding
"construct 3: Mis19 deletion, includes site A and B, residues 52–99 (PRVYETELLVLRFREFGVKDNHNHPINLHSLRSKSLIRAQGKKLDLHN; UniProt O42995 52-99, looked up, fragment)",association with Mis16,Mis16 [3],"Mis19 is associated with Mis16; also recorded: still able to interact with Mis16, although rather more weakly than the full-length protein"
LHNRVSLRRNVRAVKM [Mis19 F102S],binding to Mis16 (in words),Mis16 [4]; [6],reduced but did not abolish binding
LHNRVFLRRNVRAVKM [Mis19α2],competition / displacement of the other peptide from Mis16 (in words),Mis16 [5],capable of competing out histone H4α1
same,increase in affinity over H4α1,"Mis16 [4]; ratio of KD values, Mis16, ITC",3.6 fold
LHNRSFLRRNVRAVKM [Mis19 V101S],binding to Mis16 (in words),Mis16 [4]; [6],reduced but did not abolish binding
Mis19^28–44: peptide from the N terminus of Mis19 (NLQQFDAILKRLERRRF),disruption of preformed Mis16–Mis18–Mis19 complex (pull-down),[1],no effect on complex formation
same,disruption of preformed Mis16–Mis18–Mis19 complex (size-exclusion),[2],no effect on complex formation
"construct 1: Mis19 deletion, includes site B and C, residues 66–112 (EFGVKDNHNHPINLHSLRSKSLIRAQGKKLDLHNRVFLRRNVRAVKM; UniProt O42995 66-112, looked up, fragment)",association with Mis16,Mis16 [3],Mis19 is associated with Mis16
Mis19^1–44: peptide from the N terminus of Mis19 (MDLMPLEKARAIEIAFDNVFHNTKIPDNLQQFDAILKRLERRRF),disruption of preformed Mis16–Mis18–Mis19 complex (size-exclusion),[2],"effectively disrupts the complex, splitting it into a Mis18-containing and Mis16–Mis19–containing fractions"
Mis19 R105A: point mutant of the Mis19 C-terminal peptide (residues 97–112) (LHNRVFLRANVRAVKM),binding to Mis16 (in words),Mis16 [4]; [6],substantially reduced binding
